Drawing on US11377429B2, “Benzothia(di)azepine compounds and their use as bile acid modulators” (Albireo AB, priority 2020, dated 2022), this text covers IC50 and Papp A→B for one molecule.

SMILES strings stand for the structures.

Data set [1] deals with T1, Human LBAT (Homo sapiens, UniProt Q14973).
T1 construct: expressed in transfected cells; cultured under Geneticin selection
T1 sequence (Q14973 1-349): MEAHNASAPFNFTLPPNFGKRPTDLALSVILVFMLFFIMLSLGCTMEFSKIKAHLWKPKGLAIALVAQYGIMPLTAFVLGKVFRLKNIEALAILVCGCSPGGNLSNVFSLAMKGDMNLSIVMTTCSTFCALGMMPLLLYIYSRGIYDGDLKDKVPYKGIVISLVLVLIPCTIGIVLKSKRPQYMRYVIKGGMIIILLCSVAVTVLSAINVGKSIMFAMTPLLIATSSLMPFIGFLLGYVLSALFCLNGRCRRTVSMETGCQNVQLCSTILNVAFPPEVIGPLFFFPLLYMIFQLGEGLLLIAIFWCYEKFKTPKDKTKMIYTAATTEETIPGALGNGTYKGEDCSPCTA
In words: LBAT (h/m) assay, human LBAT-overexpressing cells, 3H-taurocholic acid uptake. The conditions noted are these: read-out: hLBAT IC50. In kind it is cell-based. Here is the method: LBAT (h/m) Assay Protocol
20,000 cells (Human or Mouse LBAT-overexpressing cells) were seeded in 96-wells plate (Corning CLS3809) in 100 μL MEM-alpha medium (Gibco 12571-063) supplemented with 10% FBS (Gibco 10438026) containing Geneticin (Gibco 10131-027) (1 mg/mL) and incubated at 37° C. in 5% CO2 for 24 hours. After incubation, media was decanted from the wells and cells were washed two times with 300 μL of basal MEM-alpha medium (FBS-free). After decanting basal MEM-alpha medium each time, plates were tapped against paper towel to ensure maximum removal of residual media. For human LBAT, incubation mix was prepared by adding test inhibitor dilutions (3-fold serial dilution in DMSO (Sigma D2650), 10 points) in MEM-alpha (without FBS) containing 0.3 μM 3H-taurocholic acid (ARC ART-1368) and 7.5 μM cold taurocholic acid (Sigma T4009) (maintaining 0.2% final DMSO concentration). For mouse LBAT, incubation mix was prepared by adding test inhibitor dilutions (3-fold serial dilution in DMSO, 10 points) in MEM-alpha (without FBS) containing 0.3 μM 3H-taurocholic acid and 25 μM cold taurocholic acid maintaining 0.2% final DMSO concentration). 50 μL of incubation mix containing test inhibitors was then added to the wells (in duplicate) and the plates were incubated for 20 minutes in a CO2 incubator at 37° C. After incubation, the reaction was stopped by keeping the plates on ice water mix for 2-3 minutes and then the incubation mix was aspirated completely from the wells. The wells were washed two times with 250 μL of chilled unlabeled 1 mM taurocholic acid dissolved in HEPES (Gibco 15630080)-buffered (10 mM) HBSS (Gibco 14175079) (pH 7.4). The plates were tapped against a paper towel after every wash to ensure maximum removal of blocking buffer.
100 μL of MicroScint-20 (PerkinElmer 6013621) was added to the wells and kept overnight at room temperature before reading the plates in TopCount NXT™ Microplate Scintillation and Luminescence Counter from PerkinElmer under 3H Test protocol (set at 120 seconds reading time per well, with normal plate orientation).
Preparation of Test Compound Dilutions
All test compounds were provided in powder form at room temperature. 10 mM DMSO stocks of the test compounds were prepared, aliquoted and stored at −20° C. From the 10 mM DMSO stock of the compounds, a 3-fold serial dilution in DMSO was prepared to get a total of 10 dilutions of the test compounds. 0.5 μL of this dilution in DMSO was added to 250 μL of FBS-free basal media containing 3H-taurocholic acid and cold taurocholic acid to prepare the incubation mixture.

Data set [2] is described as follows: Bidirectional permeability assay (Caco-2 cells). The class given is in vitro ADME. The conditions noted are these: human, pH 7.4, Caco-2, absorptive direction (A2B). The protocol:
Bidirectional Permeability Assay (Caco-2 Cells)
Caco-2 cells (Evotec) were seeded at a density of 70,000 cells/well in Millicell® 24-well cell culture insert plates and maintained in an incubator (37° C., 5% CO2, 95% RH) for 21 days with media change on alternate days.
Stock solutions (10 mM) of the test compounds, atenolol (low permeability marker), propranolol (high permeability marker) and digoxin (substrate for P-gp transport pathway) were prepared in dimethylsulfoxide (DMSO). An intermediate stock solution (1 mM) was prepared by diluting 10 μL of 10 mM master stock solution with 90 μL of neat DMSO. A working stock solution (10 μM) was prepared by diluting 50 μL of 1 mM with 4950 μL of FaSSIF buffer. […]
On the day of assay, Caco-2 monolayers were washed twice with transport buffer (HBSS, pH 7.4) and pre-incubated for 30 min (37° C., 5% CO2, 95% RH) in an incubator. The electrical resistance of the monolayers was measured with a Millicell®-ERS system. […]
Samples were vortexed and centrifuged at 4000 rpm for 10 minutes. […] The concentration of compounds in the samples was analyzed by liquid chromatography tandem mass spectrometry (LC-MS/MS) method using discovery grade bio-analytical method, as applicable.
The mean apparent permeability (Papp, ×10^−6 cm/sec) of the test compounds, atenolol, propranolol and digoxin were calculated as follows: […]

Regarding `CCCCC1(C)CN(c2ccc(F)cc2)c2cc(SC)c(OCC(O)C(=O)O)cc2S(=O)(=O)C1` (single isomer, unassigned) [1, diastereomer 1], the IC50 (commonly the concentration at which inhibition is half-maximal) in data set [1] worked out at 1640 nM. Moreover, the Papp A→B (in general, how fast a substance crosses the layer from the apical side) at 120 min, 10 µM in data set [2] turned out to be 2.2 ×10⁻⁶ cm/s.
